Reference: article PMC12390655 (Viruses, 2025)
Ends that are not written are not given here.

Tests used:
[1] = biological target: monopartite NLS peptide (mpNLS) from the SV40 large T antigen (SV40); experiment: fluorescence polarisation
eVP24–KPNA5-ΔIBB complex = eVP24–KPNA5-ΔIBB complex (Homo sapiens, UniProt O15131); experiment: biochemical; type: binding, Human KPNA5; Ebola VP24

| Substance | Kd [1] [µM] | Kd (eVP24–KPNA5-ΔIBB complex) [µM] |
| --- | --- | --- |
| Human KPNA5 aa 66–508 (KPNA5-ΔIBB) (domain or fragment) | 5.3 |  |
| KRPAATKKAGQAKKKK [bpNLS] |  | 0.21 |
| STPPKKKRKVE [mpNLS] |  | 5.2 |
